Earlier results as cited in patent publication US11458160B2, “Food supplements for use in the prophylaxis and treatment of migraine” (CRISTALFARMA S.R.L., priority 2017, dated 2022).

Legend:
[1] = magnesium sulphate intravenously, same amount
[2] = weeks 9-12; 600 mg magnesium per day orally for 12 weeks; 81 patients; p<0.05

Compound | efficacy compared with intravenous ketorolac [1] | reduction of attack frequency compared to the baseline [2] [%]
O=S(=O)([O-])[O-].[Mg+2] [magnesium sulphate] | as effective as an intravenously administered NSAID such as ketorolac | 
O=C([O-])CC(O)(CC(=O)[O-])C(=O)[O-].O=C([O-])CC(O)(CC(=O)[O-])C(=O)[O-].[Mg+2].[Mg+2].[Mg+2] [magnesium, tri-magnesium di-citrate] |  | 41.6
